In patent publication US12582695B2, “Compositions and methods for treating glioma” (Instytut Biologii Doświadczalnej im. Marcelego Nenckiego …, priority 2018, dated 2026):
In brackets after ≈: the same amount, converted by molar mass. Read-outs that look alike come from different tables or passages of the source. Where no end group is shown, it is not given here.

Assay: Solubility study
Assay type: physicochemical
[1] = water, read-out: Solubility Water

Molecule | solubility (PBS, read-out: Solubility PBS) | solubility in water (water) | solubility [1] | solubility in aqueous buffers (aqueous buffers such as PBS)
CC(C)C[C@H](NC(=O)[C@H](CCC(N)=O)NC(=O)[C@H](Cc1ccc(O)cc1)NC(=O)[C@H](CCC(N)=O)NC(=O)[C@H](Cc1ccccc1)NC(=O)[C@H](CC(=O)O)NC(=O)[C@H](CC(C)C)NC(=O)[C@H](Cc1ccc(O)cc1)NC(=O)[C@H](CO)NC(=O)[C@H](CC(C)C)NC(=O)[C@H](CCCCN)NC(=O)[C@H](CCC(N)=O)NC(=O)[C@H](Cc1ccc(O)cc1)NC(=O)[C@@H](N)CCCCN)C(=O)N[C@@H](CC(=O)O)C(=O)O [G7K-1] | 60 µg/mL (≈ 30.7 µM) | improved water solubility | 380 µg/mL (≈ 195 µM) | 
CC(C)C[C@H](NC(=O)[C@H](CCC(N)=O)NC(=O)[C@H](Cc1ccc(O)cc1)NC(=O)[C@H](CCC(N)=O)NC(=O)[C@H](Cc1ccccc1)NC(=O)[C@H](CC(=O)O)NC(=O)[C@H](CC(C)C)NC(=O)[C@H](Cc1ccc(O)cc1)NC(=O)[C@H](CO)NC(=O)[C@H](CC(C)C)NC(=O)[C@H](CCCCN)NC(=O)[C@H](CCC(N)=O)NC(=O)[C@@H](N)Cc1ccc(O)cc1)C(=O)N[C@@H](CC(=O)O)C(=O)O [G7] | 120 µg/mL (≈ 65.8 µM) | water insoluble |  | weakly soluble
YKKLSYLDFQYQLD [G7K2] | 240 µg/mL | highest solubility | 780 µg/mL | 
YQKLSYLDFQKQLD [G7K11] | 30 µg/mL |  | 130 µg/mL | 
YQKLSYLDFQYQKD [G7K13] | 80 µg/mL | improved water solubility | 360 µg/mL | 
YQKLSYLDFQYQKDK [G7K15] | 80 µg/mL |  | 180 µg/mL | 
